This is an account of results in patent publication US10098897B2, “Methods and materials for reducing development of stenosis of arteriovenous fistulas” (Mayo Foundation for Medical Education and Research, priority 2014, dated 2018).

The experiment has as its system Iex-1. Briefly: Iex-1 gene expression by qRT-PCR in hypoxic NIH 3T3 fibroblasts. Type of experiment: cell-based, mouse. An excerpt: To determine the expression of Iex-1 and Vegf-A in vitro, NIH 3T3 cells (ATCC, Manassas, Va.) were used and subjected to hypoxia and normoxia for different lengths of time as described elsewhere (Yang et al., Kidney Int., 85:289-306 (2014) and Janardhanan et al., Kidney Int., 84:338-52 (2013)). Cells were harvested for qRT-PCR analysis.
Cells or tissue were stored in a RNA stabilizing/cell lysis solution (Qiagen, Gaithersburg, Md.) (Yang et al., Kidney Int., 85:289-306 (2014) and Janardhanan et al., Kidney Int., 84:338-52 (2013)). Specimens were homogenized, and total RNA was extracted and isolated via the miRNEasy Mini kit (Qiagen). Culture cells were trypsinized and stored in Qiazol lysis regent and processed using the RNEasy Mini kit.
Gene expression was quantified using qRT-PCR as described elsewhere (Yang et al., Kidney Int., 85:289-306 (2014) and Janardhanan et al., Kidney Int., 84:338-52 (2013)).

For `C=C1/C(=C\C=C2/CCC[C@]3(C)[C@@H]([C@H](C)CCCC(C)(C)O)CC[C@@H]23)C[C@@H](O)C[C@@H]1O` [calcitriol], the “average decrease in Iex-1 expression vs. controls” value (1 μM calcitriol, hypoxic fibroblasts, 24 hours, control PBS alone) came out at 56%. Besides, where the note is “1 μM calcitriol, hypoxic fibroblasts, 24 hours, control 8.62+1.52”, the “average Iex-1 expression (qRT-PCR)” value is 3.84+2.2. The “optimal dose of calcitriol required to reduce Iex-1 expression” value (determined using a dose response curve) worked out at 1 µM.
